In ChEMBL document CHEMBL1144598, “Synthesis and characterization of cobalt(II), nickel(II), copper(II) and zinc(II) complexes with Schiff base derived from 4-amino-3-mercapto-6-methyl-5-oxo-1,2,4-triazine” (2007):
In brackets after ≈: the same amount, converted by molar mass.

Assays:
[1] = system: Escherichia coli; assay: Antibacterial activity against Escherichia coli MTCC 51 by agar dilution method; type: functional
[2] = system: Staphylococcus epidermidis; assay: Antibacterial activity against Staphylococcus epidermidis MTCC 2639 by agar dilution method; type: functional
[3] = system: Bacillus subtilis; assay: Antibacterial activity against Bacillus subtilis MTCC 121 by agar dilution method; type: functional
[4] = system: Salmonella typhi; assay: Antibacterial activity against Salmonella typhi MTCC 733 by agar dilution method; type: functional, Salmonella enterica subsp. enterica serovar Typhi; conditions: Salmonella enterica
[5] = system: Staphylococcus aureus; assay: Antibacterial activity against Staphylococcus aureus MTCC 3160 by agar dilution method; type: functional

`C/C(=N\n1c(S)nnc(C)c1=O)c1ccccn1` showed an MIC [1] of 16 mg/L (≈ 61.2 µM), an MIC [2] of 32 mg/L (≈ 122 µM) and an MIC [3] of 8 mg/L (≈ 30.6 µM). For the same compound, the MIC [4] was 16 mg/L (≈ 61.2 µM) and the MIC [5] was 16 mg/L (≈ 61.2 µM).
In the case of `N[C@@H](C(=O)N[C@@H]1C(=O)N2C(C(=O)O)=C(Cl)CS[C@H]12)c1ccccc1` [CEFACLOR ANHYDROUS], the MIC [1] is reported as 4 mg/L (≈ 10.9 µM), the MIC [2] is reported as 32 mg/L (≈ 87 µM) and the MIC [3] is reported as 8 mg/L (≈ 21.8 µM). The MIC [4] was 8 mg/L (≈ 21.8 µM) and the MIC [5] was 16 mg/L (≈ 43.5 µM).
